Test results taken from paper PMC8306904, “Discovery of New Hits as Antitrypanosomal Agents by In Silico and In Vitro Assays Using Neolignan-Inspired Natural Products from Nectandra leucantha” (Molecules, 2021).
Like-named read-outs stand apart in the source and are kept apart here.

Legend:
[1] = test system: amastigote forms of T. cruzi; assay: Activity against amastigote forms of T. cruzi in infected macrophages; format: cell-based, Trypanosoma cruzi; conditions: for SI: selectivity index (ratio CC50/IC50): CC50 against NCTC cells/IC50 against amastigotes
Protocol: To perform the experiments, peritoneal macrophages from BALB/c mice were infected with trypomastigotes forms of T. cruzi. The macrophages obtained from the peritoneal cavity of BALB/c mice were seeded on a 16-well chamber slide (NUNC plate, Merck; 1 × 10^5/well) and incubated for 24 h at 37 °C in a 5% CO2-humidified incubator. The trypomastigotes LLC-MK2 were counted and used to infect the macrophages (parasite:macrophage ratio = 10:1). After 2 h incubation at 37 °C in a 5% CO2-humidified incubator, free parasites were removed by 1× washing with the medium. […] Benznidazole was used as the standard drug. At the end of the assay, slides were fixed with MeOH, stained with Giemsa, and counted using light microscopy. The IC50 values were calculated as previously reported.

[2] = test system: amastigote forms of T. cruzi; set-up: method as in PMID 28864277, PMID 31103897, PMID 33047947; conditions: read-out: IC50, 50% inhibitory concentration against amastigote forms of T. cruzi; intracellular amastigotes; compounds 9–33 and 36–50; ref [8],[10],[26]; cited from earlier work
NCTC cells-clone L929 = test system: NCTC cells-clone L929; set-up: method as in PMID 28864277, PMID 31103897, PMID 33047947; conditions: read-out: CC50, 50% cytotoxic concentration in NCTC cells (ATCC, clone 929); compounds 9–33 and 36–50; ref [8],[10],[26]; cited from earlier work
[3] = Cytotoxicity against mammalian cells (MTT); format: cell-based; conditions: mouse, NCTC clone L929 cells (murine conjunctive cells)
Protocol: The optical density was determined using FilterMax F5 (Molecular Devices) at 570 nm. We calculated the selectivity index (SI) values using the following equation: CC50 against NCTC cells/IC50 against amastigotes.

[4] = Trypanosoma cruzi, Macrophage, -log IC50 against amastigotes, Table 1 and Figure 7, read-out: pIC50 Experimental (converted)
[5] = Trypanosoma cruzi, Macrophage, Table S2, -log IC50, supplement numbering, read-out: pIC50 (converted)
[6] = Trypanosoma cruzi, Peritoneal macrophage, in Mus musculus, 48 h, read-out: IC50, 50% inhibitory concentration against amastigote forms of T. cruzi, intracellular amastigotes in BALB/c peritoneal macrophages, 48 h, 30 to […]

Structure (SMILES)	SI: selectivity index (ratio CC50/IC50) [1]	IC50 [1, 4]	IC50 [2]	CC50 (NCTC cells-clone L929)	IC50 [1, 5]	IC50 [1, 6]	CC50 at 48 h [3]	pIC50 Experimental ([1]; -log IC50 against amastigotes, Table 1 and Figure 7)	IC50 ([1]; Trypanosoma cruzi, Macrophage, Table S1, test set, supplement numbering, read-out: Exp. pIC50 (converted))	IC50 ([1]; read-out: IC50, 50% inhibitory concentration against amastigote forms of T. cruzi, intracellular amastigotes in BALB/c peritoneal macrophages, 48 h, 30 to […])
C=CCc1ccc(Oc2cc(CCC)cc(OC)c2O)c(OC)c1 [Compound 37]	1.4	10.5 µM	10.5 ± 8.3 µM	14.2 ± 0.1 µM						
C=CCc1cc(OC)c(OCc2ccc(OC)cc2)c(Oc2ccccc2OC)c1 [Compound 48]		> 30 µM	> 30 µM	> 200 µM						
COc1cc(CC(C)O)ccc1Oc1cc(CC(C)O)cc(OC)c1OC (stereo not drawn) [Compound 31]	>15.0	13.2 µM	13.3 ± 3.6 µM	> 200 µM	28.2 µM					
C=CCc1cc(OC)c(OC)c(Oc2ccc(CCC)cc2OC)c1 [Compound 38]	>17.1	11.7 µM	11.7 ± 7 µM	> 200 µM						
C=CCc1ccc(Oc2cc([C@@H](O)C=C)cc(OC)c2OC)c(OC)c1 [Compound 4, 1-[(7S)-hydroxy-8-propenyl]-3-[3′-methoxy-1′-(8′-propenyl)-phenoxy]-4,5-dimethoxybenzene]	>14.0	14.5 µM			7.94 µM	14.3 ± 1.9 µM	> 200 µM			
C=CCc1cc(OC)cc(Oc2cc(CC=C)cc(OC)c2OS(=O)(=O)C(F)(F)F)c1 [Compound 33]		> 30 µM	> 30 µM	> 200 µM	4.27 µM					
C=CCc1cc(OC)c(OCc2ccc(OC)cc2)c(Oc2ccc(CCC)cc2OC)c1 [Compound 40]	>23.3	8.51 µM	8.6 ± 2.1 µM	> 200 µM						
C=CCc1ccc(Oc2cc(C(=O)C=C)cc(OC)c2OC(C)=O)c(OC)c1 [Compound 7, 4-Acetoxy-5-methoxy-3-[3′-methoxy-1′-(8′-propenyl)phenoxy]-1-(7-oxo-8-propenyl)benzene]	>47.6	4.27 µM				4.3 µM	> 200 µM	5.38	9.55 µM	4.2 ± 1.1 µM
C=CCc1cc(OC)cc(Oc2ccc(CC=C)cc2OC)c1 [Compound 34]	>34.5	5.75 µM				5.8 ± 0.7 µM	> 200 µM			
C=CCc1ccc(Oc2cc(C(=O)C=C)cc(OC)c2OC)c(OC)c1 [Compound 6, 4,5-dimethoxy-3-[3′-methoxy-1′-(8′-propenyl)phenoxy]-1-(7-oxo-8-propenyl)benzene]	>7.6	26.3 µM			30.2 µM	26.3 ± 1.3 µM	> 200 µM			
CCCc1ccc(Oc2cc(CCC)cc(OC)c2OC)c(OC)c1 [Compound 22]		> 30 µM	> 30 µM	> 200 µM						
C=CCc1ccc(Oc2cccc(OC)c2OC)c(OC)c1 [Compound 42]	>7.8	25.7 µM	25.7 ± 12.2 µM	> 200 µM						
CCCc1cc(OC)cc(Oc2ccc(CCC)cc2OC)c1 [Compound 35]	>18.3	11 µM				10.9 ± 6.5 µM	> 200 µM			
COc1cc(CC2CO2)ccc1Oc1cc(CC2CO2)cc(OC)c1OC (stereo not drawn) [Compound 25]		> 30 µM	> 30 µM	> 200 µM						
C=CCc1ccc(Oc2cc([C@@H](O)C=C)cc(OC)c2O)c(OC)c1 [Compound 3, 1-[(7S)-hydroxy-8-propenyl]-3-[3′-methoxy-1′-(8′-propenyl)-phenoxy]-4-hydroxy-5-methoxybenzene]		> 30 µM				> 30 µM	> 200 µM			
CCCOc1c(OC)cc(CCC)cc1Oc1ccc(CCC)cc1OC [Compound 18]		> 30 µM	> 30 µM	> 200 µM	87.1 µM					
C=CCc1ccc(Oc2cc(CCC)cc(OC)c2OCc2ccc(OC)cc2)c(OC)c1 [Compound 41]	>14.9	13.5 µM	13.4 ± 5.4 µM	> 200 µM						
C=CCc1ccc(Oc2cc(CC=C)cc(OC)c2OCCCCC)c(OC)c1 [Compound 8]		> 30 µM				> 30 µM	> 200 µM			
C=CCOc1c(OC)cccc1Oc1ccc(CC=C)cc1OC [Compound 49]		> 30 µM	> 30 µM	> 200 µM						
C=CCc1ccc(Oc2cc(CC=C)cc(OC)c2O)cc1 [Compound 45]	5.5	22.4 µM	22.5 ± 18.8 µM	123 ± 9.8 µM						
O=C(Cn1ccnc1[N+](=O)[O-])NCc1ccccc1 [Bzd, benznidazole, reference compound]	34.5	5.5 µM				5.5 ± 1.4 µM	190 ± 13.5 µM			
C=CCc1ccc(Oc2cc(CC=C)cc(OC)c2OCc2ccc(OC)cc2)cc1 [Compound 46]	>18.2	11.5 µM	11 ± 2.3 µM	> 200 µM	11 µM					
C=CCc1ccc(Oc2cc(C(=O)C=C)cc(OC)c2O)c(OC)c1 [Compound 5, 4-hydroxy-5-methoxy-3-[3′-methoxy-1′-(8′-propenyl)phenoxy]-1-(7-oxo-8-propenyl)benzene]		> 30 µM			10 µM	> 30 µM	> 200 µM			
C=CCc1cc(OC)c(OC)c(Oc2ccccc2OC)c1 [Compound 47]		> 30 µM	> 30 µM	> 200 µM						
